Read-outs that look alike come from different tables or passages of the source.
How the values were obtained:
goats = tested on: goats
Protocol: Caprine studies were also performed in two test animals. The test animals selected were monozygous male twins, castrated and placed in separate pens not later than six weeks after birth.
At approximately three months of age, one of these two goats was selected to receive daily DHA in a single, bolus, oral dose. The other goat was not given DHA, and served as the control. All parameters were equalized (pen size, ambient temperature, once daily exercise for 15 minutes on tread mill, 30 minute “play” time with other goats, twice daily ad-lib feeding of identical source feed, etc.)
Dosing was initiated in the test goat at 50 mg. After two weeks, the dose was increased to 100 mg, then after another two weeks increased to 200 mg, then maintained at that dose for an additional four weeks.
At the end of the eight week testing period, the two test animals were weighed to establish gains made from their original base-line weight at the beginning of the study.

human, male volunteers [1] = tested on: human, male volunteers
Protocol: Two human, male volunteers were selected to pre-trial the DHA material by single daily oral administration. Both were of mature age, not naive to various exogenously supplied androgens, and in good general health. Food and exercise routine was not modified from normal during the testing period, so as to avoid introduction of confounding variables.
Doses were ramped 50 mg weekly, beginning at 50 mg and concluding at 200 mg.
One of the test subjects (Subject #2) took a two week washout after this initial testing regiment and resumed testing at 100 mg, ramping the dose weekly as prior but using 100 mg increments, such that at four weeks of testing the subject was using 400 mg.
After another two week washout period, Subject #2 elected to resume testing of DHA with another related compound, androsterone, at various doses. Over several more months, this DHA/androsterone ratio was altered over a range and maintained at various ratios for not less than five days at a time before modification.

human, male volunteers [2] = tested on: human, male volunteers; remark: listed apart in the source
Description: Two human, male volunteers were selected to trial the encapsulated DHA material by daily oral administration. They were allowed to select their own serving schedules and serving sizes (within reason of extrapolated values), provided they be consistent and document the compliance of their regimens. Both were of mature age, not naive to various exogenously supplied androgens, and in good general health. Food and exercise routine was not modified from normal during the testing period, so as to avoid introduction of confounding variables.
In particular, Trial Participant #1 was a person who took five capsules a day (100 mg/day DHA) of the composition for sixteen weeks. […] Trial Participant #2 was a person who took four capsules a day (80 mg/day DHA) of the composition for six weeks.

[3] = testosterone as comparative standard; estimated; cited from earlier work
[4] = Trial Participant #2, 80 mg/day DHA, six weeks

## C[C@]12CC[C@H]3[C@@H](CC=C4C[C@H](O)CC[C@@]43C)[C@@H]1CC[C@@H]2O [DHA, 5-Androsten-3a,17b-diol]
goats; test goat in play pen with superior goats
  male behavior in castrate male: Alpha-male behavior was indeed noted to be established
goats; test goat versus control
  appetite and food intake: greater appetite and food intake
goats; test goat, eight weeks
  weight gain relative to control goat: approximately double
goats; test goat, eight weeks, from base-line 46 pounds, control 33%
  general weight gain: 59%
goats; test goat, eight weeks, oral 50 mg, then 100 mg, then 200 mg daily, start weight 46 pounds, control 61 pounds
  weight at end of testing: 73 pounds
other
  reported effects of consumer use: increases in strength, lean muscle gains, increased fat loss, appetite increase, libido boost, increased energy, and increased muscle hardness
Consumer use
  reported side effects: slight acne and slight lethargy
human, male volunteers [1]; Subject #2, extended testing, co-administered androsterone over a wide dose range
  androgenic synergism with androsterone: punctuated androgenic synergism
human, male volunteers [1]; both test subjects
  dose dependence of effects: proportional to dose in a fairly linear fashion
  parameters associated with enhanced androgen status (muscle hardness/fullness, strength): distinct improvements
human, male volunteers [1]; both test subjects, acne only noted at the higher doses tested
  side-effects characteristic of exogenous hormones: mild acne being the only undesirable effect
human, male volunteers [1]; both test subjects, one month, oral doses ramped 50 mg weekly from 50 mg to 200 mg
  subjective improvements, as defined by weight, strength, and/or muscle hardness gain: subjective improvements
human, male volunteers [2]; Trial Participant #1, 100 mg/day DHA, sixteen weeks
  weight gained: fifteen
human, male volunteers [2]; Trial Participant #1, 100 mg/day DHA, sixteen weeks, 270 pounds at the beginning
  bench press at the end: 340
human, male volunteers [2]; Trial Participant #1, 100 mg/day DHA, sixteen weeks, 430 pounds at the beginning
  single repetition leg squats at the end: 545 pounds
human, male volunteers [2]; Trial Participant #1, 100 mg/day DHA, sixteen weeks, 455 pounds at the beginning
  deadlift at the end: 560 pounds
human, male volunteers [2]; [4]
  improvement of all major lifting measurements from start to finish: 20-25 pounds
  weight gained: twelve
[3]
  relative androgenic activity equivalent to that of testosterone: approximately 43%

Reference: patent publication US10632130B2, “Dehydroandrosterol and methods of using the same” (A[…], LLC, priority 2016, dated 2020)
